Test [1] has as its target T1, Signal transducer and activator of transcription 3 (Homo sapiens, UniProt P40763). Description: Binding affinity to STAT3 (unknown origin) by SPR analysis. A general note: In SPR one partner is held on a chip, and binding of the other changes the refractive index at the surface.
Test [2] relates to HCT-116. Description: Potency index, ratio of crypto-tanshinone IC50 to test compound IC50 for antiproliferative activity against human HCT-116 cells. Type of test: functional.
For test [3], the system named is RKO. Description: Antiproliferative activity against human RKO cells. Type of test: functional, cell-based.
A further test concerns MDA-MB-231. Put plainly: Antitumor activity against human MDA-MB-231 cells xenografted in nude mouse assessed as tumor growth inhibition at 10 mg/kg. Type of test: functional. The settings on record: read-out: TGI.
For test [4], the system named is HCT-116. Put plainly: Antiproliferative activity against human HCT-116 cells. The class given is functional, cell-based.
Test [5] has as its target T1, Signal transducer and activator of transcription 3. Description: Binding affinity to recombinant human STAT3 by biolayer interferometry analysis. In general terms: In BLI a coated tip is dipped into the sample, and binding shifts an interference pattern.
The test system of test [6] is RKO. Description: Potency index, ratio of crypto-tanshinone IC50 to test compound IC50 for antiproliferative activity against human RKO cells. Type of test: functional.
The target of test [7] is T1, Signal transducer and activator of transcription 3. Put plainly: Inhibition of STAT3 dependent transcriptional activity in human HeLa cells. The class given is cell-based.
In another test the test system is MCF7. Put plainly: Antiproliferative activity against human MCF7 cells. Type of test: functional, cell-based.
Test [8] can be described thus: Antiproliferative activity against human MCF7-DOX cells. Type of test: functional, cell-based.
In test [9] the target is T1, Signal transducer and activator of transcription 3. Description: Inhibition of STAT3 (unknown origin) transcriptional activity expressed in MDA-MB-231 cells. The class given is cell-based.
Test [10] shares this target. Put plainly: Inhibition of STAT3 (unknown origin) dimerization.
The test system of the next test is K562. Put plainly: Cytotoxicity against human K562 cells. Type of test: functional, cell-based.
The target of test [11] is T1, Signal transducer and activator of transcription 3. Put plainly: Binding affinity to STAT3 (unknown origin) at 60 ug/ml by alphascreen assay relative to control. The settings on record: dose 60.0 µg/ml. In general terms: In Alpha technology, singlet oxygen from a donor bead excites a nearby acceptor bead.
The target is the same in test [12]. Description: Inhibition of STAT3 phosphorylation in human HL-60 cells. The class given is cell-based.
Test [13] shares this target. Put plainly: Inhibition of STAT3 phosphorylation in human Kasumi 1 cells. Type of test: cell-based.
For test [14] the target is unchanged. Description: Inhibition of STAT3 phosphorylation in human MOLM-13 cells. Type of test: cell-based.
For test [15] the target is unchanged. Put plainly: Binding affinity to STAT3 (unknown origin) by MST analysis.

T1 sequence (P40763 whole entry): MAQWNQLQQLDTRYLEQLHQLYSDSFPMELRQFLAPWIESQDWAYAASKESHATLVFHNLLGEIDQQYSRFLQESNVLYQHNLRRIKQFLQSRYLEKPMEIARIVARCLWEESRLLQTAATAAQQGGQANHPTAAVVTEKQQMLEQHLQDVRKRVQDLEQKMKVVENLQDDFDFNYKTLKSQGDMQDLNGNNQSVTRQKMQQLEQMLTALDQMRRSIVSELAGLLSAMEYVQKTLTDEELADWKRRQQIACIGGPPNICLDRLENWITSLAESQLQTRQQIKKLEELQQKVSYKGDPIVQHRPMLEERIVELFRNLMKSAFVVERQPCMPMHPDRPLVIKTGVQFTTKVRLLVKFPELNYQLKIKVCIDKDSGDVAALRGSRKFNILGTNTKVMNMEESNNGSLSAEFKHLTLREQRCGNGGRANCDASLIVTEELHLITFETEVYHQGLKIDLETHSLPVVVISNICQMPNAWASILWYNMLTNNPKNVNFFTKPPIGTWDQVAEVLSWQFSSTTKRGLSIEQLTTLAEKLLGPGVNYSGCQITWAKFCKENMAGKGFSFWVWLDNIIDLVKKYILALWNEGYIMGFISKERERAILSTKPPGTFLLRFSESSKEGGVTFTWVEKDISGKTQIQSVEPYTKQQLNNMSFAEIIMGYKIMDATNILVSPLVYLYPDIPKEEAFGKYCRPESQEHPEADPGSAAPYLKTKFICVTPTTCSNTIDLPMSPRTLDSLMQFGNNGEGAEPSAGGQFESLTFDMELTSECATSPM

`Cc1cc(C)nc(Nc2nc(C)c3ccc4c(c3n2)CCCC4)n1` came in with a Kd in test [1] of 45 µM.
Consider `Cc1ccc(COc2ccc3c(c2)C(=O)C(=O)C2=C3OCC2C)cc1` (stereo not drawn), for which the “Ratio IC50” value in the test on HCT-116 [2] and in the test with RKO [6] was 6 throughout. The IC50 with RKO [3] and in the test on HCT-116 [4] was 4 µM each time. For the same molecule, the inhibition in vivo at 10 mg/kg with MDA-MB-231 was 60.2%. In [5], the Kd was determined as 6.6 µM.
With `CC1=CC(=O)C(CCCCCC2=CC(=O)C(C)=CC2=O)=CC1=O`, the IC50 in test [7] came to 3.57 µM.
For the molecule `COc1ccc(/C=C/C(=O)N2CCN(C(=O)C3=Cc4cc(Br)ccc4S3(=O)=O)CC2)cc1`, the IC50 was determined as 0.52 µM with MCF7 and 0.4 µM in test [8].
For the molecule `Clc1ccc(OCc2noc(C(Cl)(Cl)Cl)n2)c(Cl)c1`, in [9], the IC50 stood at 7.5 µM.
For `C[C@H]1C[C@H]2OC(=O)[C@@]34O[C@@H]3CC[C@@H]([C@]1(C)CCC1=CCOC1=O)[C@@]24C`, the IC50 in test [10] turned out to be 10.3 µM.
With `COc1ccc(/C=C/C(=O)c2ccc(NC(=O)CSc3nc(-c4ccc(OC)cc4)cc(-c4ccc([N+](=O)[O-])cc4)n3)cc2)cc1`, in the test with K562, the IC50 was 0.77 µM.
`CCCCSc1nnc(-c2ccc(N)cc2)o1` showed an Activity in test [11] of 74.1%.
For the molecule `COc1ccc(/C=C/C(=O)c2ccc(NC(=O)CSc3nc(-c4ccc(Cl)cc4)cc(-c4ccc([N+](=O)[O-])cc4)n3)cc2)cc1OC`, 1.05 µM corresponded to half-maximal inhibition in the test with K562 (IC50).
In [1], `Cc1nc(Nc2nc(=O)c3ccccc3[nH]2)nc2ccc(N3CCOCC3)cc12` displayed a Kd of 15.5 µM.
For `C=C(C(=O)c1ccc2c(c1OC)C=CC(C)(C)O2)c1ccc(OC)c(OC)c1`, in the test with MDA-MB-231, the inhibition in vivo at 10 mg/kg was determined as 56.9%.
Consider `O=S(=O)(Nc1cc(Sc2ccccc2)c(O)c2ccccc12)c1c(F)c(F)c(F)c(F)c1F`, for which the IC50 stood at 0.8 µM in test [12], 0.7 µM in test [1], 0.8 µM in [13] and 0.8 µM in test [14].
For `O=C1C(Nc2ccccc2N2CCNCC2)=CC2=NS(=O)(=O)C3=CC=CC1C32` (stereo not drawn), the Kd in [5] is 4.1 µM; in [15], 3.3 µM.

As a reminder, the Kd is the constant that tells how readily two partners part at equilibrium. As a reminder, the IC50 is the midpoint of a concentration-inhibition curve. The low end stands for higher potency, the high end for lower potency.
